Patent US5019576A, “2-substituted N,N'-ditrimethoxybenzoyl piperazines and therapeutic compositions containing them” (Societe de Conseils de Recherches et d'Applications …, priority 1989, dated 1991)

Assays:
[1] = biological target: T1, PAF receptors (Oryctolagus cuniculus, UniProt G1TEI7); assay: Binding studies on a rabbit platelet homogenate (3[H]-PAF)
T1 construct: from tissue; host or cells: rabbit platelet homogenate
Text: This activity was evidenced by binding studies on a rabbit platelet homogenate. In this preparation indeed, those derivatives inhibit the specific bond of ^3 [H]--PAF, whereas they are without significative effect on the binding of the appropriate ligands on tissue homogenates rich in benzodiazepinic (central and peripheral), histaminergic (H1 and H2) and adrenergic (α1, α2, β2, β3) receptors, to angiotensine II or to ANF. Their affinity is therefore characteristic of PAF receptors.

[2] = system: platelet aggregation induced by 2.5 nm of PAF; assay: Inhibition of PAF-induced platelet aggregation on platelet rich plasma (Born method); assay type: cell-based, New Zealand rabbits; conditions: Oryctolagus cuniculus; rabbit platelet rich plasma, 2.5 nm PAF
Procedure: 1. --Inhibition of the platelets aggregation on New Zealand Rabbits
The experimentation was conducted on platelets with plasma of New Zealand rabbits.
Blood samples were taken from auricular artery and placed in a citrate buffer (3.8%; pH 7.4); blood was further centrifugated for 15 mn at 1200 rpm.
The tested sample was prepared in DMSO, then poured on platelets rich plasma for 1 mn, then a dose of 2.5 nm of PAF was added.
The determination is made on a Cronolog Coultronics apparatus which determines the transmission percentage corresponding to the maximum height of the peak before the desaggregation.
The percentage of variation of the inhibition with respect to the transmission percentage is calculated (control: pure DMSO).
This method was described in detail in LABORATORY INVESTIGATIONS, Vol. 41, No. 3, p. 275, 1979, JEAN-PIERRE CAZENAVE, Dr. MED., JACQUES BENVENISTE, DR. MED., AND J. FRASER MUSTARD, M. D., "Aggregation of rabbits platelets by platelet-activating factor is independent of the release reaction and the arachidonate pathway and inhibited by membrane-active drugs".

T1 sequence (G1TEI7 1-342): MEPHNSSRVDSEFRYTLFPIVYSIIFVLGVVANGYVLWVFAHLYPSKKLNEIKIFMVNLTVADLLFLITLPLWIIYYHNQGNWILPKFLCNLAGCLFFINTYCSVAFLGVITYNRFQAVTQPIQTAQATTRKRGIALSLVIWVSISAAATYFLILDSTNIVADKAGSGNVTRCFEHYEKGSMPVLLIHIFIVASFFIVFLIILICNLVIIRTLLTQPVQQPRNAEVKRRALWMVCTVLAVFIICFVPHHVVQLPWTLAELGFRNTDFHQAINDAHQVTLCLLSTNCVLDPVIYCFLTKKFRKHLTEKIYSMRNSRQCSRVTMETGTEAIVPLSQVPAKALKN

Row | Structure (SMILES) | IC50 [1] | IC50 [2]
1 | CCCCCC1CN(C(=O)c2cc(OC)c(OC)c(OC)c2)CCN1C(=O)c1cc(OC)c(OC)c(OC)c1 (centres unmarked) [Example 4, N,N'-bis-(3',4',5'-trimethoxybenzoyl) 2-n-pentyl piperazine] | 32 nM | 190 nM
2 | COc1cc(C(=O)N2CCN(C(=O)c3cc(OC)c(OC)c(OC)c3)C(CCc3ccccc3)C2)cc(OC)c1OC (centres unmarked) [Example 10, N,N'-bis-(3',4',5'-trimethoxybenzoyl)-2-n-(phenethyl) piperazine] | 4100 nM | 5400 nM
3 | CCCCCCCCC1CN(C(=O)c2cc(OC)c(OC)c(OC)c2)CCN1C(=O)c1cc(OC)c(OC)c(OC)c1 (centres unmarked) [Example 1, N,N'-bis-(3',4',5'-trimethoxybenzoyl)-2-n-octyl piperazine] | 62 nM | 120 nM
4 | C=CCc1ccc(CCC2CN(C(=O)c3cc(OC)c(OC)c(OC)c3)CCN2C(=O)c2cc(OC)c(OC)c(OC)c2)cc1 (centres unmarked) [Example 16, N,N'-bis-(3',4',5'-trimethoxybenzoyl)-2-n-(p-(allyl)phenethyl) piperazine] | 530 nM | 290 nM
5 | COc1cc(C(=O)N2CCN(C(=O)c3cc(OC)c(OC)c(OC)c3)C(Cc3ccccc3)C2)cc(OC)c1OC (centres unmarked) [Example 9, N,N'-bis-(3',4',5'-trimethoxybenzoyl)-2-n-(benzyl) piperazine] | 730 nM | 410 nM
6 | COc1cc(C(=O)N2CCN(C(=O)c3cc(OC)c(OC)c(OC)c3)C(CCc3ccc(Cl)cc3)C2)cc(OC)c1OC (centres unmarked) [Example 14, N,N'-bis-(3',4',5'-trimethoxybenzoyl)-2-n-(p-(chloro)phenethyl) piperazine] | 450 nM | 170 nM
7 | COc1cc(CCC2CN(C(=O)c3cc(OC)c(OC)c(OC)c3)CCN2C(=O)c2cc(OC)c(OC)c(OC)c2)cc(OC)c1OC (centres unmarked) [Example 8, N,N'-bis-(3',4',5'-trimethoxybenzoyl)-2-n-(3,4,5-(trimethoxy)phenethyl) piperazine] | 38 nM | 71 nM
8 | COc1ccc(CCC2CN(C(=O)c3cc(OC)c(OC)c(OC)c3)CCN2C(=O)c2cc(OC)c(OC)c(OC)c2)cc1 (centres unmarked) [Example 12, N,N'-bis-(3',4',5'-trimethoxybenzoyl)-2-n-(p-(methoxy)phenethyl) piperazine] | 60 nM | 62 nM

Next, values leading:

Row | IC50 [1] | IC50 [2] | Structure (SMILES)
9 | 6300 nM | 5800 nM | CCCCCCCCCCCCCCCC1CN(C(=O)c2cc(OC)c(OC)c(OC)c2)CCN1C(=O)c1cc(OC)c(OC)c(OC)c1 (centres unmarked) [Example 5, N,N'-bis-(3',4',5'-trimethoxybenzoyl) 2-n-pentadecyl piperazine]
10 | 140 nM | 350 nM | COc1cc(C(=O)N2CCN(C(=O)c3cc(OC)c(OC)c(OC)c3)C(CCCc3ccc(C)cc3)C2)cc(OC)c1OC (centres unmarked) [Example 13, N,N'-bis-(3',4',5'-trimethoxybenzoyl)-2-n-(p-(methyl)phenylpropyl) piperazine]
11 | 4700 nM | 2400 nM | CCCCCCCCCCCCCCCCCCCC1CN(C(=O)c2cc(OC)c(OC)c(OC)c2)CCN1C(=O)c1cc(OC)c(OC)c(OC)c1 (centres unmarked) [Example 6, N,N'-bis-(3',4',5'-trimethoxybenzoyl) 2-n-nonadecyl piperazine]
12 | 31 nM | 11 nM | COc1cc(C(=O)N2CCN(C(=O)c3cc(OC)c(OC)c(OC)c3)C(CCCc3ccccc3)C2)cc(OC)c1OC (centres unmarked) [Example 11, N,N'-bis-(3',4',5'-trimethoxybenzoyl)-2-n-(phenyl-n-propyl) piperazine]
13 | 740 nM | 430 nM | COc1cc(C(=O)N2CCN(C(=O)c3cc(OC)c(OC)c(OC)c3)C(CCC3CCCCC3)C2)cc(OC)c1OC (centres unmarked) [Example 7, N,N'-bis-(3',4',5'-trimethoxybenzoyl)-2-n-(cyclohexylethyl) piperazine]
14 | 670 nM | 560 nM | COc1cc(C(=O)N2CCN(C(=O)c3cc(OC)c(OC)c(OC)c3)C(C)C2)cc(OC)c1OC (centres unmarked) [Example 3, N,N'-bis-(3',4',5'-trimethoxybenzoyl) 2-methyl piperazine]
15 | 680 nM | 370 nM | COc1cc(C(=O)N2CCN(C(=O)c3cc(OC)c(OC)c(OC)c3)C(CCc3cccc(Cl)c3Cl)C2)cc(OC)c1OC (centres unmarked) [Example 15, N,N'-bis-(3',4',5,-trimethoxybenzoyl)-2-n-(2,3-(dichloro)phenethyl) piperazine]
16 | 250 nM | 710 nM | COc1cc(C(=O)N2CCN(C(=O)c3cc(OC)c(OC)c(OC)c3)C(CCC(C)(C)C)C2)cc(OC)c1OC (centres unmarked) [Example 2, N,N'-bis-(3',4',5'-trimethoxybenzoyl) 2-(3",3"-dimethyl) -butyl piperazine]
